Assay results: patent US8410126B2, “Pyrimidine inhibitors of PKTK2” (Boehringer Ingelheim International GmbH, priority 2009, dated 2013)

Molecular target: T1, PTK2 (Homo sapiens, UniProt Q05397)
T1 construct: purchased Invitrogen PV3832
Test: PTK2 enzyme test Assay 1 (DELFIA, poly-Glu-Tyr substrate, PT60 antibody)
Type: biochemical
Conditions: Assay 1 (values without *); 1 h pre-incubation, 50 μM ATP mix, final DMSO 2%
Method: This test uses active PTK2 enzyme (Invitrogen Code PV3832) and poly-Glu-Tyr (4:1, Sigma P-0275) as the kinase substrate. The kinase activity is detected through the phosphorylation of the substrate in a DELFIA™ assay. The phosphorylated substrate is detected with the europium-labelled phosphotyrosine antibody PT60 (Perkin Elmer, No.: AD00400).
In order to determine concentration-activity curves with PTK2-inhibitors the compounds are serially diluted in 10% DMSO/H2O and 10 μL of each dilution are placed in each well of a 96-well microtitre plate (clear plate with a U-shaped base, Greiner No. 650101) (the inhibitors are tested in duplicates) and mixed with 10 μL/well of PTK2 kinase (0.01 μg/well). PTK2 kinase has been correspondingly diluted beforehand with kinase dilution buffer (20 mM TRIS/HCl pH 7.5, 0.1 mM EDTA, 0.1 mM EGTA, 0.286 mM sodium orthovanadate, 10% glycerol with the addition of freshly prepared BSA (fraction V, 1 mg/mL) and DTT (1 mM)). The test compound and the PTK2 kinase are pre-incubated for 1 h at RT and shaken at 500 revolutions per min. The reaction is started by the addition of 10 μL/well poly (Glu,Tyr) substrate (25 μg/well poly (Glu, Tyr), 0.05 μg/well biotinylated poly (Glu,Tyr) dissolved in 250 mM TRIS/HCl pH 7.5, 9 mM DTT)—the final concentration of DMSO is 2%. Then 20 μL of ATP Mix (30 mM TRIS/HCl pH 7.5, 0.02% Brij, 0.2 mM sodium orthovanadate, 10 mM magnesium acetate, 0.1 mM EGTA, 1× phosphatase inhibitor cocktail 1 (Sigma, No.: P2850), 50 μM ATP (Sigma, No.: A3377; 15 mM stock solution)) are added. After 1 h of kinase reaction (the plates are shaken at 500 rpm), the reaction is stopped by the addition of 12 μL/well 100 mM EDTA, pH 8.0 and shaken for a further 5 min at RT (500 rpm). 55 μL of the reaction mixture are transferred into a streptavidin plate (Strepta Well High Bind (transparent, 96-well) made by Roche, No.: 11989685001) and incubated for 1 h at RT (shaking at 500 rpm). Then the microtitre plate is washed three times with 200 μL/well D-PBS (Invitrogen, No. 14190). 100 μL of a solution containing DELFIA Eu-N1 Anti-Phosphotyrosine PT60 antibody (Perkin Elmer, No.: AD0040, diluted 1:2000 in DELFIA test buffer (Perkin Elmer, No.: 1244-111)) is then added and the mixture is incubated for 1 h at RT (shaking at 500 rpm). Then the plate is washed three times with 200 μL/well DELFIA washing buffer (Perkin Elmer, No.: 1244-114), 200 μL/well strengthening solution (Perkin Elmer, No.: 1244-105) are added and the mixture is incubated for 10 min at RT (shaking at 300 rpm).
The time-delayed europium fluorescence is then measured in a microtitre plate reader (VICTOR^3, Perkin Elmer). […] Wells that contain test buffer instead of enzyme are used as a control of the background kinase activity.
The IC50 values are determined from analyses of the concentration activity by iterative calculation with the aid of a sigmoid curve analysis algorithm (FIFTY, based on GraphPAD Prism Version 3.03) with a variable Hill coefficient.

T1 sequence (Q05397 whole entry): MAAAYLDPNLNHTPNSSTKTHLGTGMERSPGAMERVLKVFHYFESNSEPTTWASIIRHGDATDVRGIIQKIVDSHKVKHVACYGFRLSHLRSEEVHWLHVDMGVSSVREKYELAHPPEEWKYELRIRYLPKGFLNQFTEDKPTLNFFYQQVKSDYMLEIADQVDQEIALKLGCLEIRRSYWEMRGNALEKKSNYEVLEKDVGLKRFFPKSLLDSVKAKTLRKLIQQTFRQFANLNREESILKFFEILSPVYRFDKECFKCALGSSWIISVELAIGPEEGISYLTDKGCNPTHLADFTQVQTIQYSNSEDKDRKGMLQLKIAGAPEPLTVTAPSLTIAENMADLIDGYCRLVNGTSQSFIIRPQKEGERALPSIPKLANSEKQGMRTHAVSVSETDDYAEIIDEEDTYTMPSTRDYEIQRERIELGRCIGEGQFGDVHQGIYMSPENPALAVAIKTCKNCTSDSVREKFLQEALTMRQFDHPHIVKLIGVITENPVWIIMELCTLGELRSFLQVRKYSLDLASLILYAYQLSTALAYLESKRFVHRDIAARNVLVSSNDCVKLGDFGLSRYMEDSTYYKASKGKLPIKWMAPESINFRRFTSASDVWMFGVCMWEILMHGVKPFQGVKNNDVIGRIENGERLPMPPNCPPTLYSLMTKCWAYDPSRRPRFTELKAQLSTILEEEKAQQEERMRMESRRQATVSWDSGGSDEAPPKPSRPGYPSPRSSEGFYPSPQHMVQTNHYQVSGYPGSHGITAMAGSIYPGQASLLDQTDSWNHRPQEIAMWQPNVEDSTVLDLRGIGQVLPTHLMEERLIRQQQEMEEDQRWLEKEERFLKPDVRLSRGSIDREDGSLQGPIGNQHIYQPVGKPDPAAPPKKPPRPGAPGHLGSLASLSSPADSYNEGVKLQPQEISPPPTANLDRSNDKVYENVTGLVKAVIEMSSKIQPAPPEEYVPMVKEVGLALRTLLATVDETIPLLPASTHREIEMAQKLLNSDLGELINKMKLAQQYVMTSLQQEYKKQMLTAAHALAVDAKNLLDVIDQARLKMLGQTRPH

| Structure (SMILES) | IC50 [nM] |
| --- | --- |
| COc1cc(C(=O)NC2CCN(C)CC2)c(F)cc1Nc1ncc(C(F)(F)F)c(N[C@@H]2Cc3ccccc3[C@H]2N(C)S(C)(=O)=O)n1 [Example I-46, 2-fluoro-4-{4-[(1R,2R)-1-(methanesulphonyl-methyl-amino)-indan-2-ylamino]-5-trifluoromethyl-pyrimidin-2-ylamino}-5-methoxy-N-(1-methyl-piperidin-4-yl)-benzamide] | 2 |
| COc1cc(C(=O)NCCN(C)C)ccc1Nc1ncc(C(F)(F)F)c(N[C@@H]2Cc3ccccc3[C@H]2N(C)S(C)(=O)=O)n1 [Example I-52] | 1 |
| COc1cc(C(=O)NC2CCN(C)CC2)ccc1Nc1ncc(C(F)(F)F)c(N[C@@H]2Cc3ccccc3[C@H]2N(C)S(C)(=O)=O)n1 [Example I-5, 4-{4-[(1R,2R)-1-(methanesulphonyl-methyl-amino)-indan-2-ylamino]-5-trifluoromethyl-pyrimidin-2-ylamino}-3-methoxy-N-(1-methyl-piperidin-4-yl)-benzamide] | 2 |
| COc1cc(C(=O)NC2CCN(C)CC2)ccc1Nc1ncc(C(F)(F)F)c(N[C@@H]2Cc3ccccc3[C@H]2NS(C)(=O)=O)n1 [Example I-8] | 2 |
| COc1cc(N2CCN(C)CC2)ccc1Nc1ncc(C(F)(F)F)c(N[C@@H]2Cc3ccccc3[C@H]2N(C)S(C)(=O)=O)n1 [Example I-39, N-((1R,2R)-2-{2-[2-methoxy-4-(4-methyl-piperazin-1-yl)-phenylamino]-5-trifluoromethyl-pyrimidin-4-ylamino}-indan-1-yl)-N-methyl-methanesulphonamide] | 3 |
| CCN1CCC(NC(=O)c2ccc(Nc3ncc(C(F)(F)F)c(N[C@@H]4Cc5ccccc5[C@H]4NC(C)=O)n3)c(OC)c2)CC1 [Example I-11] | 2 |
| COc1cc(C(=O)NC2CCOCC2)ccc1Nc1ncc(C(F)(F)F)c(N[C@@H]2Cc3ccccc3[C@H]2NC(C)=O)n1 [Example I-15] | 4 |
| COc1cc(N2CCN(C3COC3)CC2)ccc1Nc1ncc(C(F)(F)F)c(N[C@@H]2Cc3ccccc3[C@H]2N(C)S(C)(=O)=O)n1 [Example I-57] | 3 |
| COCCNC(=O)c1ccc(Nc2ncc(C(F)(F)F)c(N[C@@H]3Cc4ccccc4[C@H]3NC(C)=O)n2)c(OC)c1 [Example I-16] | 2 |
| COc1cc(C(=O)NC2CCCN(C)C2)ccc1Nc1ncc(C(F)(F)F)c(N[C@@H]2Cc3ccccc3[C@H]2NC(C)=O)n1 (stereo partly shown) [Example I-14] | 2 |
| COc1cc(N2CCN(CC3CC3)CC2)ccc1Nc1ncc(C(F)(F)F)c(N[C@@H]2Cc3ccccc3[C@H]2N(C)S(C)(=O)=O)n1 [Example I-56] | 3 |
| COCCN1CCC(NC(=O)c2ccc(Nc3ncc(C(F)(F)F)c(N[C@@H]4Cc5ccccc5[C@H]4NC(C)=O)n3)c(OC)c2)CC1 [Example I-13] | 3 |
| COc1cc(C(=O)NOCCN(C)C)ccc1Nc1ncc(C(F)(F)F)c(N[C@@H]2Cc3ccccc3[C@H]2N(C)S(C)(=O)=O)n1 [Example I-59] | 0.83 |
| COc1cc(C(=O)NC2CCCN(C)C2)ccc1Nc1ncc(C(F)(F)F)c(N[C@@H]2Cc3ccccc3[C@H]2N(C)S(C)(=O)=O)n1 (stereo partly shown) [Example I-6] | 0.96 |
| COc1cc(N2CCN(CC(=O)N(C)C)CC2)ccc1Nc1ncc(C(F)(F)F)c(N[C@@H]2Cc3ccccc3[C@H]2N(C)S(C)(=O)=O)n1 [Example I-40] | 3 |
| COc1cc(C(=O)NCCN(C)C)c(C)cc1Nc1ncc(C(F)(F)F)c(N[C@@H]2Cc3ccccc3[C@H]2N(C)S(C)(=O)=O)n1 [Example I-54] | 0.84 |
| CNC(=O)c1ccc(Nc2ncc(Cl)c(N[C@@H]3Cc4ccccc4[C@H]3N(C)S(C)(=O)=O)n2)c(OC)c1 [Example I-34] | 7 |

| Structure (SMILES) | IC50 [nM] |
| --- | --- |
| CONC(=O)c1ccc(Nc2ncc(C(F)(F)F)c(N[C@@H]3Cc4ccccc4[C@H]3NC(C)=O)n2)c(OC)c1 [Example I-17] | 2 |
| COc1cc(NC(C)=O)ccc1Nc1ncc(C(F)(F)F)c(N[C@@H]2Cc3ccccc3[C@H]2N(C)S(C)(=O)=O)n1 [Example I-90] | 3 |
| CNCc1ccc(Nc2ncc(C(F)(F)F)c(N[C@@H]3Cc4ccccc4[C@H]3N(C)S(C)(=O)=O)n2)c(OC)c1 [Example I-71, N-{(1R,2R)-2-[2-(2-methoxy-4-methylaminomethyl-phenylamino)-5-trifluoromethyl-pyrimidin-4-ylamino]-indan-1-yl}-N-methyl-methanesulphonamide] | 1 |
| CNC(=O)c1ccc(Nc2ncc(C(F)(F)F)c(N[C@@H]3Cc4ccccc4[C@H]3NS(C)(=O)=O)n2)c(OC)c1 [Example I-10] | 2 |
| COc1cc(C(=O)NC2CCN(C)CC2)c(C)cc1Nc1ncc(C(F)(F)F)c(N[C@@H]2Cc3ccccc3[C@H]2N(C)S(C)(=O)=O)n1 [Example I-53] | 1 |
| COc1cc(N2CCN(C)CC2)ccc1Nc1ncc(C(F)(F)F)c(N[C@@H]2Cc3ccccc3[C@H]2NC(C)=O)n1 [Example I-26] | 2 |
| COc1cc(C(=O)NC2CCC(N3CCN(CC4CC4)CC3)CC2)ccc1Nc1ncc(C(F)(F)F)c(N[C@@H]2Cc3ccccc3[C@H]2NC(C)=O)n1 (stereo partly shown) [Example I-12] | 4 |
| COc1cc(N2CCNCC2)ccc1Nc1ncc(C(F)(F)F)c(N[C@@H]2Cc3ccccc3[C@H]2N(C)S(C)(=O)=O)n1 [Example I-70, N-{(1R,2R)-2-[2-(2-methoxy-4-piperazin-1-yl-phenylamino)-5-trifluoromethyl-pyrimidin-4-ylamino]-indan-1-yl}-N-methyl-methanesulphonamide] | 0.98 |
| COc1cc(C(=O)NCCN(C)C)ccc1Nc1ncc(C(F)(F)F)c(N[C@@H]2Cc3ccccc3[C@H]2NS(C)(=O)=O)n1 [Example I-3, N-(2-dimethylamino-ethyl)-4-[4-((1R,2R)-1-methanesulphonylamino-indan-2-ylamino)-5-trifluoromethyl-pyrimidin-2-ylamino]-3-methoxy-benzamide] | 2 |
| COc1cc(C(=O)NC2CCC(N3CCN(CC4CC4)CC3)CC2)c(F)cc1Nc1ncc(C(F)(F)F)c(N[C@@H]2Cc3ccccc3[C@H]2N(C)S(C)(=O)=O)n1 (stereo partly shown) [Example I-51] | 4 |
| COc1cc(C(=O)NC2CCN(C)CC2)c(C)cc1Nc1ncc(Cl)c(N[C@@H]2Cc3ccccc3[C@H]2N(C)S(C)(=O)=O)n1 [Example I-68] | 1 |
| COc1cc(C(=O)NC2CCN(C)CC2)ccc1Nc1ncc(Br)c(N[C@@H]2Cc3ccccc3[C@H]2N(C)S(C)(=O)=O)n1 [Example I-98, 4-{5-bromo-4-[(1R,2R)-1-(methanesulphonyl-methyl-amino)-indan-2-ylamino]-pyrimidin-2-ylamino}-3-methoxy-N-(1-methyl-piperidin-4-yl)-benzamide] | 1 |
| COc1cc(C(=O)NC2CCC(N3CCN(CC4CC4)CC3)CC2)ccc1Nc1ncc(C(F)(F)F)c(N[C@@H]2Cc3ccccc3[C@H]2N(C)S(C)(=O)=O)n1 (stereo partly shown) [Example I-7] | 1 |
| COc1cc(C(=O)NC2CCCN(C)C2)c(F)cc1Nc1ncc(C(F)(F)F)c(N[C@@H]2Cc3ccccc3[C@H]2N(C)S(C)(=O)=O)n1 (stereo partly shown) [Example I-47] | 3 |
| COc1cc(C(=O)NC2CCOCC2)c(F)cc1Nc1ncc(C(F)(F)F)c(N[C@@H]2Cc3ccccc3[C@H]2N(C)S(C)(=O)=O)n1 [Example I-50] | 8 |
| CNC(=O)c1cc(OC)c(Nc2ncc(C(F)(F)F)c(N[C@@H]3Cc4ccccc4[C@H]3N(C)S(C)(=O)=O)n2)cc1F [Example I-49] | 6 |
| COCCNC(=O)c1ccc(Nc2ncc(C(F)(F)F)c(N[C@@H]3Cc4ccccc4[C@H]3N(C)S(C)(=O)=O)n2)c(OC)c1 [Example I-45] | 2 |
